In patent publication US9023858B2, “Substituted pyrido[2,3-d]pyrimidines as delta-5-desaturase inhibitors” (Takeda Pharmaceutical Company Limited, priority 2010, dated 2015):
Structures can show the parent of a compound that is named as a salt.

How the values were obtained:
[1] = target: T1, delta-5-desaturase (Rattus norvegicus, UniProt Q920R3); assay: Inhibitory activity on binding of [3H]-labelled Reference Example 1 ligand to delta-5-desaturase (rat liver microsome fraction); conditions: test compound 10 μM; for inhibition at 10 µM: 3 nM tritiated ligand of Reference Example 1, read-out: Binding inhibitory activity against compound bind to delta-5-desaturase Binding inhibition rate (%) at 10 μM
T1 construct: a rat liver microsome fraction (10 μl) diluted to 3 mg/ml with a microsome buffer; from tissue; host or cells: rat liver microsome fraction
Protocol: Inhibitory Activity on Binding of N-[2-({4-oxo-3-[4-(2,2,2-trifluoroethoxy)[2,6-^3H2]phenyl]-3,4-dihydrothieno[3,4-d]pyrimidin-2-yl}sulfanyl)ethyl]acetamide (Reference Example 1) to delta-5-desaturase)
All tests were performed at room temperature at 200 μL/well. A rat liver microsome fraction (30 μg/well) was preincubated with a test compound at a final concentration of 10 μM for 15 min in an assay buffer (10 mM Tris-HCl (pH 7.5), 100 mM KCl, 10 mM NaF, 3 mM MgCl2, 0.005% Tween20 and 1 mM GSH). N-[2-({4-oxo-3-[4-(2,2,2-trifluoroethoxy) [2,6-^3H2]phenyl]-3,4-dihydrothieno[3,4-d]pyrimidin-2-yl}sulfanyl)ethyl]acetamide was added to a final concentration of 3 nM and the mixture was incubated for 150 min. For Bound/Free separation, the membrane fraction was added on a GF/C glass filter using a cell harvester. The GF/C glass filter was washed 5 times with 300 μl of ice-cooled assay buffer (without 0.005% Tween) to separate the ligand bound to delta-5-desaturase. 50 μl of MicroScinti 0 was added, and the radioactivity on the filter was measured by TopCount. To evaluate non-specific binding, 10 μM N-[2-({4-oxo-3-[4-(2,2,2-trifluoroethoxy)phenyl]-3,4-dihydrothieno[3,4-d]pyrimidin-2-yl}sulfanyl)ethyl]acetamide was used. The inhibitory rate (%) of the test compound (10 μM) on the binding of N-[2-({4-oxo-3-[4-(2,2,2-trifluoroethoxy) [2,6-^3H2]phenyl]-3,4-dihydrothieno[3,4-d]pyrimidin-2-yl}sulfanyl)ethyl]acetamide to delta-5-desaturase was determined.

[2] = target: T1, delta-5-desaturase; assay: Delta-5-desaturase inhibitory activity using rat liver microsome; assay type: biochemical; conditions: test compound 10 μM
Protocol: Delta-5-Desaturase Inhibitory Activity Using Rat Liver Microsome
The inhibitory activity of the test compound on delta-5-desaturase was measured by the method described below. To a solution of the test compound in DMSO prepared in advance was secondarily diluted with a buffer (300 mM NaH2PO4 [pH 7.4], 450 mM KCl, 30 mM NaF, 9 mM MgCl2, 4.5 mM glutathione [reduced form], 0.3% BSA [fatty acid free, SIGMA]) to give an assay buffer. The assay buffer (10 μl) was dispensed to a polypropylene deep 96-well block, and a rat liver microsome fraction (10 μl) diluted to 3 mg/ml with a microsome buffer (10 mM Tris-HCl [pH 7.4], 1 mM EDTA, 250 mM sucrose) was added. The enzyme reaction was started by adding 9 mM NADH, 9 mM ATP, 0.9 mM CoA, 10 μCi/ml (8E,11E,14E)-(1-^14C)eicosa-8,11,14-trienoic acid (PerkinElmer Inc.) (10 μl). The enzyme reaction was performed for 120 min at room temperature, and discontinued by the addition of 10 μl of 2.5M NaOH. After discontinuation of the reaction, the plate was sealed and incubated overnight at 55° C. to allow saponification. The fatty acid was extracted with solvent based on the Bligh & Dyer method described in Can. J. Biochem. Physiol., vol. 37, page 911 (1959) by adding formic acid:methanol:chloroform (1:6:3) (200 μl), maintaining the single layer state, sufficiently stirring the mixture and adding pure water (120 μl) for separation into two layers. The lower chloroform layer (10 μl) was spotted on a reversed-phase TLC plate (RP-18, 1154230001, Merck Japan, Ltd.), developed with acetonitrile:pure water:acetic acid (95:4.5:0.5), and the dried TLC plate was transcribed on Imaging Plate (Fuji Photo Film Co., Ltd.) for 5 hr or longer. The detection was performed using BAS-5000 (Fuji Photo Film Co., Ltd.), and the obtained spot image was numerically converted by Multi Gauge Ver2.3 (Fuji Photo Film Co., Ltd.) and a delta-5-desaturase inhibitory rate (%) of 10 μM test compound was determined.

[3] = target: T2, delta-5-desaturase (Homo sapiens, UniProt O60427); assay: Delta-5-desaturase inhibitory activity using HepG2 cell; assay type: cell-based; conditions: test compound 1 μM
T2 construct: endogenous in cells; host or cells: HepG2
Protocol: Delta-5-Desaturase Inhibitory Activity Using HepG2 Cell
HepG2 was plated on a 96-well plate at 1×10^5 cells/well, and cultured overnight in DMEM (Dulbecco's modified Eagle medium) containing 10% FBS (fetal bovine serum). After washing (200 μL×2) with PBS (phosphate buffered saline), 40 μL of a reaction medium (DMEM, penicillin/streptomycin, 0.3% BSA) containing the test compound was added, and the mixture was preincubated in a CO2 incubator at 37° C. for 30 min. The reaction was started by adding a reaction medium (20 μL) containing 0.1 μCi [^14C]Eicosatrienoic acid, and the mixture was incubated in a CO2 incubator at 37° C. Incubation was performed for 3 hr, the cells were washed twice with 200 μL of PBS, detached with 50 μL of trypsin-EDTA and placed on a 96-deep well block. Furthermore, 20 μL of 2.5N NaOH was added, the plate was sealed and incubated overnight at 55° C. to allow saponification. The fatty acid extraction included acidifying with 10 μL of formic acid, adding chloroform:methanol (1:4), stirring, and further adding 200 μL of pure water to separate into two layers. The operation after development with TLC followed the method of detection system using TLC in a system using a rat liver microsome. A delta-5-desaturase inhibitory rate (%) of 1 μM test compound was determined.

T1 sequence (Q920R3 whole entry): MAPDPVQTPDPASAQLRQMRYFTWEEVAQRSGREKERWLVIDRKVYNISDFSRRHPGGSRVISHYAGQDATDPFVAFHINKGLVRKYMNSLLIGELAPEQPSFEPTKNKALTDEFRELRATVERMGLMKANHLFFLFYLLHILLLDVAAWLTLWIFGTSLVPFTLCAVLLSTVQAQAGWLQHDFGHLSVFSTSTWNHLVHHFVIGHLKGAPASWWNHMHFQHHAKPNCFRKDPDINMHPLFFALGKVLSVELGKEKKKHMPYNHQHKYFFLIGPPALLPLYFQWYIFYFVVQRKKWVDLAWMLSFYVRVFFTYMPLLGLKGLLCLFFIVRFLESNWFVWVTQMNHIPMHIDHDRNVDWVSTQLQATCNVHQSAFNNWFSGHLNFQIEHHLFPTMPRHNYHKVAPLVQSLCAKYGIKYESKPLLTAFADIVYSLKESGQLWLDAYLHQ
T2 sequence (O60427 whole entry): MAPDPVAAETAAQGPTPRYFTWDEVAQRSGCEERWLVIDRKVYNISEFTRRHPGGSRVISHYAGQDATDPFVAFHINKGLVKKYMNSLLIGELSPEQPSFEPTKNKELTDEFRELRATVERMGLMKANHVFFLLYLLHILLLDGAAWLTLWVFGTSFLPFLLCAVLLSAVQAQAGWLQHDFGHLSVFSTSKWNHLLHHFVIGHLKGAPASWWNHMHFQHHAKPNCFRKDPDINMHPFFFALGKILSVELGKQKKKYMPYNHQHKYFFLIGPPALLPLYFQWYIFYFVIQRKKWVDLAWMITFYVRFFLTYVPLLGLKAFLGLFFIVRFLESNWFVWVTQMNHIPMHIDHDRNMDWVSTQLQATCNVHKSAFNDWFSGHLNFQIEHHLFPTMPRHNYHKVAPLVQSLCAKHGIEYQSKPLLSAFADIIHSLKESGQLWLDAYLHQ

Compound	inhibition at 10 µM [1]	inhibition at 10 µM [2]	inhibition at 1 µM [3]	Binding inhibitory activity against compound bind to delta-5-desaturase Binding inhibition rate (%) at 10 μM ([1]; 3 nM tritiated ligand of Reference Example 1, sodium salt)	delta-5-desaturase inhibitory activity (at liver microsome) Inhibitory activity (%) at 10 μM ([2]; sodium salt, 10 µM)
COc1ccc2c(=O)n(-c3ccc(OCC(F)(F)F)cc3)c(SC)nc2n1 [Example 2, 7-methoxy-2-(methylsulfanyl)-3-[4-(2,2,2-trifluoroethoxy)phenyl]pyrido[2,3-d]pyrimidin-4(3H)-one]	94%	102%	107%		
CCCSc1nc2nc(OC)ccc2c(=O)n1-c1ccc(OCC(F)(F)F)cc1 [Example 3, 7-methoxy-2-(propylsulfanyl)-3-[4-(2,2,2-trifluoroethoxy)phenyl]pyrido[2,3-d]pyrimidin-4(3H)-one]	97%	102%			
COc1ccc2c(=O)n(-c3ccc(OCC(F)(F)F)cc3)c(OCC(F)(F)F)nc2n1 [Example 5, 7-methoxy-2-(2,2,2-trifluoroethoxy)-3-[4-(2,2,2-trifluoroethoxy)phenyl]pyrido[2,3-d]pyrimidin-4(3H)-one]	93%	101%	95%		
CCSc1nc2[nH]c(=O)ccc2c(=O)n1-c1ccc(OCC(F)(F)F)cc1 [Example 6, 2-(ethylsulfanyl)-3-[4-(2,2,2-trifluoroethoxy)phenyl]pyrido[2,3-d]pyrimidine-4,7(3H,8H)-dione]	97%	99%	101%		
CCSc1nc2[nH]c(=O)ccc2c(=O)n1-c1ccc(OCC(F)(F)F)cc1 [Example 7, 2-(ethylsulfanyl)-3-[4-(2,2,2-trifluoroethoxy)phenyl]pyrido[2,3-d]pyrimidine-4,7(3H,8H)-dione sodium salt]				96%	98%
CCSc1nc2c(ccc(=O)n2C)c(=O)n1-c1ccc(OCC(F)(F)F)cc1 [Example 8, 2-(ethylsulfanyl)-8-methyl-3-[4-(2,2,2-trifluoroethoxy)phenyl]pyrido[2,3-d]pyrimidine-4,7(3H,8H)-dione]	96%	99%	103%		
CCOc1nc2[nH]c(=O)ccc2c(=O)n1-c1ccc(OCC(F)(F)F)cc1 [Example 9, 2-ethoxy-3-[4-(2,2,2-trifluoroethoxy)phenyl]pyrido[2,3-d]pyrimidine-4,7(3H,8H)-dione]	96%	99%	97%		
O=c1ccc2c(=O)n(-c3ccc(OCC(F)(F)F)cc3)c(OCC(F)(F)F)nc2[nH]1 [Example 11, 2-(2,2,2-trifluoroethoxy)-3-[4-(2,2,2-trifluoroethoxy)phenyl]pyrido[2,3-d]pyrimidine-4,7(3H,8H)-dione]	95%	100%	98%		
CS(=O)(=O)CCCOc1nc2[nH]c(=O)ccc2c(=O)n1-c1ccc(OCC(F)(F)F)cc1 [Example 13, 2-[3-(methylsulfonyl)propoxy]-3-[4-(2,2,2-trifluoroethoxy)phenyl]pyrido[2,3-d]pyrimidine-4,7(3H,8H)-dione]	89%	97%	88%		
COCC(F)(F)COc1nc2[nH]c(=O)ccc2c(=O)n1-c1ccc(OCC(F)(F)F)cc1 [Example 14, 2-(2,2-difluoro-3-methoxypropoxy)-3-[4-(2,2,2-trifluoroethoxy)phenyl]pyrido[2,3-d]pyrimidine-4,7(3H,8H)-dione]		103%	103%		
O=c1ccc2c(=O)n(-c3ccc(OCC(F)(F)F)cc3)c(OCC(F)(F)CO)nc2[nH]1 [Example 17, 2-(2,2-difluoro-3-hydroxypropoxy)-3-[4-(2,2,2-trifluoroethoxy)phenyl]pyrido[2,3-d]pyrimidine-4,7(3H,8H)-dione]	99%	105%	103%		
COc1nc2[nH]c(=O)ccc2c(=O)n1-c1ccc(OCC(F)(F)F)cc1 [Example 18, 2-methoxy-3-[4-(2,2,2-trifluoroethoxy)phenyl]pyrido[2,3-d]pyrimidine-4,7(3H,8H)-dione]	84%	92%	95%		
CCNc1nc2[nH]c(=O)ccc2c(=O)n1-c1ccc(OCC(F)(F)F)cc1 [Example 19, 2-(ethylamino)-3-[4-(2,2,2-trifluoroethoxy)phenyl]pyrido[2,3-d]pyrimidine-4,7(3H,8H)-dione]	85%	90%			
CC(C)Oc1nc2[nH]c(=O)ccc2c(=O)n1-c1ccc(OCC(F)(F)F)cc1 [Example 20, 2-(1-methylethoxy)-3-[4-(2,2,2-trifluoroethoxy)phenyl]pyrido[2,3-d]pyrimidine-4,7(3H,8H)-dione]	97%	104%	97%		
CSc1nc2c(c(=O)n1-c1ccc(OCC(F)(F)F)cc1)CCC(=O)N2 [Example 21, 2-(methylsulfanyl)-3-[4-(2,2,2-trifluoroethoxy)phenyl]-5,6-dihydropyrido[2,3-d]pyrimidine-4,7(3H,8H)-dione]	93%	97%			
CCSc1nc2c(c(=O)n1-c1ccc(OCC(F)(F)F)cc1)CCC(=O)N2 [Example 24, 2-(ethylsulfanyl)-3-[4-(2,2,2-trifluoroethoxy)phenyl]-5,6-dihydropyrido[2,3-d]pyrimidine-4,7(3H,8H)-dione]	95%	101%	109%		
CCSc1nc2c(c(=O)n1-c1ccc(OCC(F)(F)F)cc1)SCC(=O)N2 [Example 25, 2-(ethylsulfanyl)-3-[4-(2,2,2-trifluoroethoxy)phenyl]-3H-pyrimido[5,4-b][1,4]thiazine-4,7(6H,8H)-dione]	98%	98%	92%		
CCSc1nc2nc(N)ccc2c(=O)n1-c1ccc(OCC(F)(F)F)cc1 [Example 26, 7-amino-2-(ethylsulfanyl)-3-[4-(2,2,2-trifluoroethoxy)phenyl]pyrido[2,3-d]pyrimidin-4(3H)-one]	96%	102%	107%		
CCCc1nc2c(c(=O)n1-c1ccc(OCC(F)(F)F)cc1)CCC(=O)N2 [Example 40, 2-propyl-3-[4-(2,2,2-trifluoroethoxy)phenyl]-5,6-dihydropyrido[2,3-d]pyrimidine-4,7(3H,8H)-dione]	89%		92%		
